# Strand notation (5' to 3'): a small letter for the sugar, then the base; units joined by * are phosphorothioate-linked, units joined directly phosphodiester-linked; [ ] holds rarer units or linkages, { } end groups; capitals alone tell only the bases. e = 2'-O-(2-methoxyethyl) (MOE); [5mC] = 5-methylcytosine; d = 2'-deoxy (DNA)
# System: human microsomal triglyceride transfer protein mRNA
# Assay: not given
# Conditions: not given
row,Sequence,% INHIB (inhibition of human microsomal triglyceride transfer protein mRNA levels)
1,GATGATTCAAAATGACGCTG (chemistry not given here) [ISIS 144444],at least 30%

# System: human microsomal triglyceride transfer protein mRNA
# Assay: Antisense inhibition of human microsomal triglyceride transfer protein mRNA levels, quantitative real-time PCR; note: test concentration or dose not given here
# Conditions: averages from two experiments
row,Sequence,% INHIB (inhibition of human microsomal triglyceride transfer protein mRNA levels)
1,GCGGTAGCCCACGCTGTCTT (antisense eG*e[5mC]*eG*eG*eT*dA*dG*d[5mC]*d[5mC]*d[5mC]*dA*d[5mC]*dG*d[5mC]*dT*eG*eT*e[5mC]*eT*eT) [ISIS 144412],at least 30%
2,GCTTCATCCTTGTCCATCTG (antisense eG*e[5mC]*eT*eT*e[5mC]*dA*dT*d[5mC]*d[5mC]*dT*dT*dG*dT*d[5mC]*d[5mC]*eA*eT*e[5mC]*eT*eG) [ISIS 144438],at least 30%
3,GTACTGGTTTCCAGGCCAGC (antisense eG*eT*eA*e[5mC]*eT*dG*dG*dT*dT*dT*d[5mC]*d[5mC]*dA*dG*dG*e[5mC]*e[5mC]*eA*eG*e[5mC]) [ISIS 144437],at least 30%
4,GTAGCATACTGCATATACCC (antisense eG*eT*eA*eG*e[5mC]*dA*dT*dA*d[5mC]*dT*dG*d[5mC]*dA*dT*dA*eT*eA*e[5mC]*e[5mC]*e[5mC]) [ISIS 144443],at least 30%
5,TCAACTGCATCCAGTGCCCA (antisense eT*e[5mC]*eA*eA*e[5mC]*dT*dG*d[5mC]*dA*dT*d[5mC]*d[5mC]*dA*dG*dT*eG*e[5mC]*e[5mC]*e[5mC]*eA) [ISIS 144408],at least 30%
6,TCATATTGACCAGCAATCCT (antisense eT*e[5mC]*eA*eT*eA*dT*dT*dG*dA*d[5mC]*d[5mC]*dA*dG*d[5mC]*dA*eA*eT*e[5mC]*e[5mC]*eT) [ISIS 144409],at least 30%

# — US20050181376A1, “Antisense modulation of microsomal triglyceride transfer protein expression” (ISIS Pharmaceuticals, Inc., priority 2001, published 2005)
